Experimental data taken from patent US20220370453A1 (Storm Therapeutics Ltd, priority 2019, published 2022).

Columns and labels:
[1] = molecular target: T1, BCDIN3D (Homo sapiens, UniProt Q7Z5W3); test: BCDIN3D InCellPulse thermal stability assay in transfected A549 cells; assay type: cell-based; conditions: transiently transfected A549 cells, heat shock 58° C. 15 min
T1 sequence (Q7Z5W3 1-292): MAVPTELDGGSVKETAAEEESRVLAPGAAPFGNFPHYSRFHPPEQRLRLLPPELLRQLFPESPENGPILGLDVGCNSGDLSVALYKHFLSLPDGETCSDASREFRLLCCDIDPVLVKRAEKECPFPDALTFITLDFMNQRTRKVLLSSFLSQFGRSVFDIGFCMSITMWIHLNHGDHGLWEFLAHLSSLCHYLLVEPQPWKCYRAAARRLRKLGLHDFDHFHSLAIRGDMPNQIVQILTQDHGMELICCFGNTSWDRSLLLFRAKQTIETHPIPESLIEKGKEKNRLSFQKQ
Summary of the method: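 A549 cells transiently expressing BCDIN3D N-terminally fused to ePL ProLabel tag, 1500 cells/well, pre-incubated 1 h at 37 °C with compound (0.6% DMSO). Heat shock 58 °C for 15 min; remaining soluble fusion detected by split β-galactosidase complementation luminescence.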

[2] = molecular target: T1, BCDIN3D; test: BCDIN3D IC50 RFMS (RapidFire) assay with mini-helix; assay type: biochemical; conditions: mini-helix substrate 0.2 μM, SAM 6 μM, 25 nM enzyme
Summary of the method: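 25 nM enzyme preincubated 10 min at room temperature with compound (1% DMSO) in 25 mM Tris pH 8.0, 10 mM DTT, 1 mM EDTA, 0.03% BSA. Reaction started with 0.2 μM mini-helix plus 6 μM SAM, run 1 h at 37 °C, quenched with TCA; SAH product quantified by RapidFire MS against isotopic SAH standards.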

Row | Compound | IC50 [1] | IC50 [2]
1 | Cc1nn(C)c2nc(NC[C@H](N)c3ccccc3)nc(NC(C)(C)C)c12 [Compound 4.128, N6-[(2R)-2-amino-2-phenylethyl]-N4-tert-butyl-1,3-dimethyl-1H-pyrazolo[3,4-d]pyrimidine-4,6-diamine] | 1290 nM | 1010 nM
2 | C[C@@H](Nc1nc(NC[C@H](N)c2ccccc2)nc2c1cnn2C)C1CC1 [Compound 4.129, N6-[(2R)-2-amino-2-phenylethyl]-N4-[(1R)-1-cyclopropylethyl]-1-methyl-1H-pyrazolo[3,4-d]pyrimidine-4,6-diamine] | 290 nM | 180 nM
3 | CC(C)Cc1nc(NCC(N)c2ccccc2)nc2c1cnn2C (centres unmarked) [Compound 4.130, N2-[1-methyl-4-(2-methylpropyl)-1H-pyrazolo[3,4-d]pyrimidin-6-yl]-1-phenylethane-1,2-diamine] | 11200 nM | 6010 nM
4 | Cc1ccc(CNc2nc(NCC(N)c3ccccn3)nc3c2cnn3C)cc1Cl (centres unmarked) [Compound 5.02] | 944 nM | 217 nM
5 | Cn1ncc2c(Nc3ccc(C(F)(F)F)cc3)nc(NCC(N)c3ccccn3)nc21 (centres unmarked) [Compound 5.03, 6-N-(2-amino-2-pyridin-2-ylethyl)-1-methyl-4-N-[4-(trifluoromethyl)phenyl]pyrazolo[3,4-d]pyrimidine-4,6-diamine] | 436 nM | 89.4 nM
6 | CNc1nc(NCC(N)c2cccc(C#N)c2)nc2c1cnn2C (centres unmarked) [Compound 5.04, 3-[1-Amino-2-[[1-methyl-4-(methylamino)pyrazolo[3,4-d]pyrimidin-6-yl]amino]ethyl]benzonitrile] | 3640 nM | 694 nM
7 | C#Cc1cccc(C(N)CNc2nc(NC(C)(C)C)c3cnn(C)c3n2)c1 (centres unmarked) [Compound 5.05, N6-[2-Amino-2-(3-ethynylphenyl)ethyl]-N4-tert-butyl-1-methyl-pyrazolo[3,4-d]pyrimidine-4,6-diamine] | 68.3 nM | 51.8 nM
8 | Cn1ncc2c(NC(C)(C)C)nc(NCC(N)c3ccccn3)nc21 (centres unmarked) [Compound 5.06, N6-[2-amino-2-(2-pyridyl)ethyl]-N4-tert-butyl-1-methyl-pyrazolo[3,4-d]pyrimidine-4,6-diamine] | 1110 nM | 1100 nM
9 | Cc1ccc(CNc2nc(NCC(N)c3cccnc3)nc3c2cnn3C)cc1Cl (centres unmarked) [Compound 5.07, 6-N-(2-amino-2-pyridin-3-ylethyl)-4-N-[(3-chloro-4-methylphenyl)methyl]-1-methylpyrazolo[3,4-d]pyrimidine-4,6-diamine] | 882 nM | 135 nM
10 | Cn1ncc2c(NC(C)(C)C)nc(NCC(N)c3cccnc3)nc21 (centres unmarked) [Compound 5.08, N6-[2-amino-2-(3-pyridyl)ethyl]-N4-tert-butyl-1-methyl-pyrazolo[3,4-d]pyrimidine-4,6-diamine] | 1170 nM | 615 nM
11 | Cn1ncc2c(Nc3ccc(C(F)(F)F)cc3)nc(NCC(N)c3ccccc3Cl)nc21 (centres unmarked) [Compound 5.09, 6-N-[2-amino-2-(2-chlorophenyl)ethyl]-1-methyl-4-N-[4-(trifluoromethyl)phenyl]pyrazolo[3,4-d]pyrimidine-4,6-diamine] | 55.9 nM | 127 nM
12 | Cn1ncc2c(NC(C)(C)C)nc(NCC(N)c3ccccc3Cl)nc21 (centres unmarked) [Compound 5.10, N6-[2-amino-2-(2-chlorophenyl)ethyl]-N4-tert-butyl-1-methyl-pyrazolo[3,4-d]pyrimidine-4,6-diamine] | 462 nM | 495 nM
13 | Cn1ncc2c(NC(C)(C)C)nc(NC[C@H](N)c3ccccc3Cl)nc21 [Compound 5.11, N6-[(2R)-2-amino-2-(2-chlorophenyl)ethyl]-N4-tert-butyl-1-methyl-pyrazolo[3,4-d]pyrimidine-4,6-diamine] | 457 nM | 321 nM
14 | Cc1ccc(CNc2nc(NCC(N)c3ccccc3F)nc3c2cnn3C)cc1Cl (centres unmarked) [Compound 5.12, 6-N-[2-amino-2-(2-fluorophenyl)ethyl]-4-N-[(3-chloro-4-methylphenyl)methyl]-1-methylpyrazolo[3,4-d]pyrimidine-4,6-diamine] | 643 nM | 345 nM
15 | Cn1ncc2c(NC(C)(C)C)nc(NCC(N)c3ccccc3F)nc21 (centres unmarked) [Compound 5.13, N6-[2-amino-2-(2-fluorophenyl)ethyl]-N4-tert-butyl-1-methyl-pyrazolo[3,4-d]pyrimidine-4,6-diamine] | 525 nM | 383 nM
16 | [2H]C([2H])([2H])n1ncc2c(NC(C)(C)C)nc(NCC(N)c3ccccc3F)nc21 (centres unmarked) [Compound 5.14, N6-[2-amino-2-(2-fluorophenyl)ethyl]-N4-tert-butyl-1-(trideuteriomethyl)pyrazolo[3,4-d]pyrimidine-4,6-diamine] | 429 nM | 294 nM

Row | Compound | IC50 [1] | IC50 [2]
17 | CC(C)Nc1nc(NC[C@H](N)c2cccc(Br)c2)nc2c1cnn2C [Compound 5.15, N6-[(2R)-2-amino-2-(3-bromophenyl)ethyl]-N4-isopropyl-1-methyl-pyrazolo[3,4-d]pyrimidine-4,6-diamine] | 47.1 nM | 28.4 nM
18 | Cn1ncc2c(NC(C)(C)C(F)(F)F)nc(NC[C@H](N)c3cccc(Br)c3)nc21 [Compound 5.16, N6-[(2R)-2-amino-2-(3-bromophenyl)ethyl]-1-methyl-N4-(2,2,2-trifluoro-1,1-dimethyl-ethyl)pyrazolo[3,4-d]pyrimidine-4,6-diamine] | 38.5 nM | 41.7 nM
19 | CNc1nc(NCC(N)c2cccc(Br)c2)nc2c1cnn2C (centres unmarked) [Compound 5.17, 6-N-[2-amino-2-(3-bromophenyl)ethyl]-4-N,1-dimethylpyrazolo[3,4-d]pyrimidine-4,6-diamine] | 1870 nM | 470 nM
20 | Cn1ncc2c(NC(C)(C)C)nc(NCC(N)c3cccc(Br)c3)nc21 (centres unmarked) [Compound 5.18, N6-[2-amino-2-(3-bromophenyl)ethyl]-N4-tert-butyl-1-methyl-pyrazolo[3,4-d]pyrimidine-4,6-diamine] | 27.8 nM | 47 nM
21 | CC(C)Nc1nc(NCC(N)c2ccc(Br)cc2)nc2c1cnn2C (centres unmarked) [Compound 5.19, 6-N-[2-amino-2-(4-bromophenyl)ethyl]-1-methyl-4-N-propan-2-ylpyrazolo[3,4-d]pyrimidine-4,6-diamine] | 767 nM | 375 nM
22 | Cn1ncc2c(NC(C)(C)C)nc(NCC(N)c3ccccc3Br)nc21 (centres unmarked) [Compound 5.20, N6-[2-amino-2-(2-bromophenyl)ethyl]-N4-tert-butyl-1-methyl-pyrazolo[3,4-d]pyrimidine-4,6-diamine] | 1120 nM | 609 nM
23 | CNc1nc(NCC(N)c2ccc(C#N)cc2)nc2c1cnn2C (centres unmarked) [Compound 5.21, 4-[1-amino-2-[[1-methyl-4-(methylamino)pyrazolo[3,4-d]pyrimidin-6-yl]amino]ethyl]benzonitrile] | 11100 nM | 3860 nM
24 | Cn1ncc2c(NC(C)(C)C)nc(NCC(N)c3cccc(C#N)c3)nc21 (centres unmarked) [Compound 5.22, 3-[1-amino-2-[[4-(tert-butylamino)-1-methyl-pyrazolo[3,4-d]pyrimidin-6-yl]amino]ethyl]benzonitrile] | 129 nM | 42.8 nM
25 | Cn1ncc2c(NC(C)(C)C(F)(F)F)nc(NC[C@H](N)c3cccc(C#N)c3)nc21 [Compound 5.23, 3-[(1R)-1-amino-2-[[1-methyl-4-[(2,2,2-trifluoro-1,1-dimethyl-ethyl)amino]pyrazolo[3,4-d]pyrimidin-6-yl]amino]ethyl]benzonitrile] | 124 nM | 61.7 nM
26 | Cn1ncc2c(NC3CC(F)(F)C3)nc(NCC(N)c3cccnc3)nc21 (centres unmarked) [Compound 5.25, N6-[2-amino-2-(3-pyridyl)ethyl]-N4-(3,3-difluorocyclobutyl)-1-methyl-pyrazolo[3,4-d]pyrimidine-4,6-diamine] | 5580 nM | 1810 nM
27 | Cn1ncc2c(NC(C)(C)C)nc(NCC(N)c3ccncc3)nc21 (centres unmarked) [Compound 5.26, N6-[2-amino-2-(4-pyridyl)ethyl]-N4-tert-butyl-1-methyl-pyrazolo[3,4-d]pyrimidine-4,6-diamine] | 5570 nM | 3390 nM
28 | Cn1ncc2c(NC3CC(F)(F)C3)nc(NCC(N)c3ccncc3)nc21 (centres unmarked) [Compound 5.27, N6-[2-amino-2-(4-pyridyl)ethyl]-N4-(3,3-difluorocyclobutyl)-1-methyl-pyrazolo[3,4-d]pyrimidine-4,6-diamine] | 10000 nM | 2810 nM
29 | Cn1ncc2c(NC(C)(C)C)nc(NC[C@H](N)c3ccc(C#N)cc3)nc21 [Compound 5.28, 4-[(1R)-1-amino-2-{[4-(tert-butylamino)-1-methyl-1H-pyrazolo[3,4-d]pyrimidin-6-yl]amino}ethyl]benzonitrile] | 370 nM | 90 nM
30 | CN[C@@H](CNc1nc(NC(C)(C)C)c2cnn(C)c2n1)c1ccccc1 [Compound 5.29, N4-tert-butyl-1-methyl-N6-[(2R)-2-(methylamino)-2-phenylethyl]-1H-pyrazolo[3,4-d]pyrimidine-4,6-diamine] | 1690 nM | 2780 nM
31 | Cn1ncc2c(NC(C)(C)C)nc(NCC(N)c3cccc(C4CC4)c3)nc21 (centres unmarked) [Compound 5.32, N6-[2-amino-2-(3-cyclopropylphenyl)ethyl]-N4-tert-butyl-1-methyl-1H-pyrazolo[3,4-d]pyrimidine-4,6-diamine] | 120 nM | 70 nM
